Measured values: patent publication US20240116985A1, “STAPLED PEPTIDES AND METHODS THEREOF” (priority 2020, published 2024)
pEC50: −log10 of the molar value.

What was measured:
[1] = molecular target: T1, full-length B-Catenin (Uniprot ID P35222) (Homo sapiens, UniProt P35222); assay: Alphascreen binding assay (beta-catenin / biotin-TCF4 10-53)
T1 construct: 65 nM full-length B-Catenin (Uniprot ID P35222)
T1 sequence (P35222 1-781): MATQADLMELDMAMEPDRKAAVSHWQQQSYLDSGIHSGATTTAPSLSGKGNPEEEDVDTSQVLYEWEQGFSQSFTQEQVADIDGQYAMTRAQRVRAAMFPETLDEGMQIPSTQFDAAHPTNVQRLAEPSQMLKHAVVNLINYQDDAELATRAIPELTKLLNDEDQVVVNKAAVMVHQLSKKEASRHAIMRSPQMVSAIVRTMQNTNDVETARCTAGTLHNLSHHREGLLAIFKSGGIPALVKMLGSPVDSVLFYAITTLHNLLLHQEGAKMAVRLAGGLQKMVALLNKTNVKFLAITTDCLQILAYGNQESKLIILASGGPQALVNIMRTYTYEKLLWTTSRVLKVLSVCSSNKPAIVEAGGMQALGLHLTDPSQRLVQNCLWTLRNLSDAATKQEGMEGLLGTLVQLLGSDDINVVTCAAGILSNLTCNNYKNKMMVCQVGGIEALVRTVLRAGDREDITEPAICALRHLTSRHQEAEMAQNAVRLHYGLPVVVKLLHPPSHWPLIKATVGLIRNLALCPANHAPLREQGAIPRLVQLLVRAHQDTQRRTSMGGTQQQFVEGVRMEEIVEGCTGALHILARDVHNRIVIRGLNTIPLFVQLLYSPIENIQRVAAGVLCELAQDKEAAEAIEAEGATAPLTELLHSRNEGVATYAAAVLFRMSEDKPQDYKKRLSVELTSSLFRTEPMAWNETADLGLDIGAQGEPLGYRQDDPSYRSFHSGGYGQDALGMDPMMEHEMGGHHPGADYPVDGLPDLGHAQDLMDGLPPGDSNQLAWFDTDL
Method in brief: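 AlphaScreen (Ni-chelate beads) competition in 50 mM Tris pH 8.0, 250 mM NaCl with detergents and 0.1% BSA. Peptide titrated 10 uM–5 nM against 65 nM human β-catenin bound to 10 nM biotinylated TCF4 10-53, 15 min then 60 min with beads, both at 20 °C; 1:1 Hill-slope fit.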

CHI Log D procedure = type: physicochemical; details: for CHI Log D: pH 7.4

Row | SMILES | pEC50 [1] | CHI Log D (CHI Log D procedure) | chromatographic logD (CHI Log D procedure; pH 7.4, CHI Log D)
1 | CC(=O)N1CCC[C@]12CC=CCCCC1(CCCC=CCCCCCC[C@@](C)(C(=O)N[C@@H](Cc3ccccc3)C(=O)N[C@@H](Cc3c[nH]c4ccccc34)C(=O)N[C@@H](CCC(N)=O)C(N)=O)NC(=O)[C@H](C(C)C)NC(=O)[C@H](Cc3ccccc3)NC(=O)[C@H](C)NC(=O)[C@H](C)NC(=O)[C@H](CCC(=O)O)NC(=O)[C@H](CC(=O)O)NC1=O)NC(=O)[C@H](C)NC(=O)[C@H](Cc1c[nH]cn1)NC2=O (stereo partly drawn) [I-315, Ac-PL3-His-Ala-B5-Asp-Glu-Ala-Ala-Phe-Val-S8-Phe-Trp-Gln-NH2] | 5.00 | 2.359 | –
2 | CC(=O)N[C@@H](Cc1ccccc1)C(=O)N[C@@H](CC(=O)O)C(=O)N[C@@H](C)C(=O)NC12CN(C1)C(=O)OCC=CCCCCCC[C@@](C)(C(=O)N[C@@H](Cc1ccccc1)C(=O)N[C@@H](Cc1c[nH]c3ccccc13)C(=O)N[C@@H](CCC(N)=O)C(N)=O)NC(=O)[C@H](C(C)C)NC(=O)[C@H](Cc1ccccc1)NC(=O)[C@H](C)NC(=O)[C@H](C)NC(=O)[C@H](CC(=O)O)NC(=O)[C@H](CC(=O)O)NC2=O [I-35, Ac-Phe-Asp-Ala-Az-Asp-Asp-Ala-Ala-Phe-Val-S8-Phe-Trp-Gln-NH2] | 5.02 | – | 1.33
3 | CC(=O)N[C@@H](Cc1ccccc1)C(=O)N[C@@H](CC(=O)O)C(=O)N[C@@H](C)C(=O)N[C@]1(C)CCCCCCC=CCOC(=O)N2CC[C@@](C(=O)N[C@@H](Cc3ccccn3)C(=O)N[C@@H](Cc3c[nH]c4ccccc34)C(=O)N[C@@H](CCC(N)=O)C(N)=O)(C2)NC(=O)[C@H](C(C)C)NC(=O)[C@H](Cc2ccccc2)NC(=O)[C@H](C)NC(=O)[C@H](C)NC(=O)[C@H](CC(=O)O)NC(=O)[C@H](CC(=O)O)NC1=O [I-81, Ac-Phe-Asp-Ala-R8-Asp-Asp-Ala-Ala-Phe-Val-PyrS-2PyrA-Trp-Gln-NH2] | 5.01 | 1.063 | –
4 | CC(=O)N1CCC[C@]12CC=CCCCC1(CCCC=CCCCCCC[C@@](C)(C(=O)N[C@@H](Cc3ccccc3)C(=O)N[C@@H](Cc3c[nH]c4ccccc34)C(=O)N[C@@H](CCC(N)=O)C(N)=O)NC(=O)[C@H](C(C)C)NC(=O)[C@H](Cc3ccccc3)NC(=O)[C@H](C)NC(=O)[C@H](C)NC(=O)[C@H](CC(=O)O)NC(=O)[C@H](CC(=O)O)NC1=O)NC(=O)[C@H](C)NC(=O)[C@H](CCC(=O)O)NC2=O (stereo partly drawn) [I-279, Ac-PL3-Glu-Ala-B5-Asp-Asp-Ala-Ala-Phe-Val-S8-Phe-Trp-Gln-NH2] | 5.30 | 1.973 | –
5 | CC(=O)N1CCC[C@]12CC=CCCCC1(CCCC=CCCCCCC[C@@](C)(C(=O)N[C@@H](Cc3ccc(C(F)(F)F)cc3)C(=O)N[C@@H](Cc3c[nH]c4ccccc34)C(=O)N[C@@H](CCC(N)=O)C(N)=O)NC(=O)[C@H](C(C)C)NC(=O)[C@H](Cc3ccccc3)NC(=O)[C@H](C)NC(=O)[C@H](C)NC(=O)[C@H](CC(=O)O)NC(=O)[C@H](CC(=O)O)NC1=O)NC(=O)[C@H](C)NC(=O)[C@H](CC(=O)O)NC2=O (stereo partly drawn) [I-252, Ac-PL3-Asp-Ala-B5-Asp-Asp-Ala-Ala-Phe-Val-S8-4F3MeF-Trp-Gln-NH2] | 5.43 | 2.214 | –
6 | CC(=O)N1CCC[C@]12CC=CCCCC1(CCCC=CCCCCCC[C@@](C)(C(=O)N[C@@H](Cc3ccccc3)C(=O)N[C@@H](Cc3c[nH]c4ccccc34)C(=O)N[C@@H](CCC(N)=O)C(N)=O)NC(=O)[C@H](C(C)C)NC(=O)[C@H](Cc3cc(F)c(F)c(F)c3)NC(=O)[C@H](C)NC(=O)[C@H](C)NC(=O)[C@H](CCC(=O)O)NC(=O)[C@H](CC(=O)O)NC1=O)NC(=O)[C@H](C)NC(=O)[C@H](CC(=O)O)NC2=O (stereo partly drawn) [I-211, Ac-PL3-Asp-Ala-B5-Asp-Glu-Ala-Ala-345FF-Val-S8-Phe-Trp-Gln-NH2] | 6.44 | 2.101 | –
